Melting point data for one compound are collected here from US9199928B2, “Fluorescent dye for pH sensor” (SARTORIUS STEDIM BIOTECH GMBH, priority 2011, dated 2015).

Each structure is given as a SMILES string.

Consider `NC(CCCCNS(=O)(=O)c1cc(S(=O)(=O)NCCCCC(N)C(=O)O)c2ccc3c(O)cc(O)c4ccc1c2c43)C(=O)O` (stereo not shown), for which the melting point – broadly, the temperature of the solid-liquid transition – was 210 to 212 °C (dec.).
